What is called IC50 is the concentration that gives 50% inhibition.

This passage reports IC50 results from patent US7875647B2, “Heteroaryl-pyrazole derivatives as cannabinoid CB1 receptor antagonists” (Green Cross Corporation, priority 2006, dated 2011).

This assay deals with T1, Cannabinoid-1 receptor (CB1R) (Rattus norvegicus, UniProt P20272).
T1 construct: The tissue obtained from the brain of SD rats was homogenized; from tissue; host or cells: brain of SD rats (membrane pellet of the homogenate)
T1 sequence (P20272 whole entry): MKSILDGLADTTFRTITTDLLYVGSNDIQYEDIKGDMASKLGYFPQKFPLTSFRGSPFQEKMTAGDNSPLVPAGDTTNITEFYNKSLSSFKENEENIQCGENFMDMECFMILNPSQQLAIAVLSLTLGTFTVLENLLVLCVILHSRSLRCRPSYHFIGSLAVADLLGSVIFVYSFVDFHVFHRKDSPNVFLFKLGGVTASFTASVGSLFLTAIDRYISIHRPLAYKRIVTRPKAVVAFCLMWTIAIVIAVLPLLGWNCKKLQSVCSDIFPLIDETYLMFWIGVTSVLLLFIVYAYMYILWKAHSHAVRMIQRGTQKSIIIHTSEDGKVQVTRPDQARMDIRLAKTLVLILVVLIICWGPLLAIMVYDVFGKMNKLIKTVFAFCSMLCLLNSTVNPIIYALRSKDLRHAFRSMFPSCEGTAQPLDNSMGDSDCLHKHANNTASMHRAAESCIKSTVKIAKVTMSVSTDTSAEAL
The assay is described as follows: Cannabinoid-1 receptor (CB1R) binding affinity assay ([3H]CP-55940, rat CB-1 receptor binding protocol). The conditions noted are these: brain tissue of SD rats, [3H]CP-55940, 30° C. 60 min; read-out: IC50. The method, then:
The tissue obtained from the brain of SD rats was homogenized with a Dounce homogenate system in TME (50 mM Tris, 3 mM MgCl2 and 1 mM EDTA, pH 7.4) at 4° C., and the homogenate was centrifuged at 48,000 g for 30 min. at 4° C. The pellet was resuspended in 5 ml of TME and the suspension was divided into aliquots and stored at −70° C. until its use in the following assay.
The tissue concentrations were determined by Bradford protein analysis, and 148 μl of brain tissue of the required concentration was added to the plate. The plate was covered and placed in a 30° C. incubator for 60 min, and then transformed on GF/B filtermat pretreated in polyethylenimine (PEI) using a cell harvester. Each filter was washed five times and dried at 60° C. for 1 hr. Then, the degree of radioactivity retained by the filter was measured using Wallac Microbeta™ (PerkinElmer Life Sciences, Inc., Massachusetts, U.S.A.) and the activity of the compound for inhibiting CB1 receptor was determined therefrom.
Regarding `Cc1c(-c2nnnn2C2CCCCCC2)nn(-c2ccc(Cl)cc2Cl)c1-c1ccc(Br)cc1` [Example 608, 5-(5-(4-bromophenyl)-1-(2,4-dichlorophenyl)-4-methyl-1H-pyrazol-3-yl)-1-cycloheptyl-1H-tetrazole], the IC50 was 16.5 nM.
To `Cc1c(-c2nnnn2Cc2ccccn2)nn(-c2ccc(Cl)cc2Cl)c1-c1ccc(Cl)cc1` [Example 583, 2-((5-(5-(4-Chlorophenyl)-1-(2,4-dichlorophenyl)-4-methyl-1H-pyrazol-3-yl)-1H-tetrazol-1-yl)methyl)pyridine] belongs 105 nM; to “2-(5-(4-chlorophenyl)-1-(2,4-dichlorophenyl)-4-methyl-1H-pyrazol-3-yl)-5-cyclohexyl-1,3,4-thiadiazole [Example 347]”, 51.3 nM.
To `CCc1c(-c2nnc(C(C)(C)C)s2)nn(-c2ccc(Cl)cc2Cl)c1-c1ccc(Br)cc1` [Example 377, 2-(5-(4-Bromophenyl)-1-(2,4-dichlorophenyl)-4-ethyl-1H-pyrazol-3-yl)-5-tert-butyl-1,3,4-thiadiazole] belongs 9.57 nM.
Under `CCCn1nnc(-c2nn(-c3ccc(Cl)cc3Cl)c(-c3ccc(Cl)cc3)c2C)n1` [Example 566, 5-(5-(4-Chlorophenyl)-1-(2,4-dichlorophenyl)-4-methyl-1H-pyrazol-3-yl)-2-propyl-2H-tetrazole] stands 62.1 nM; under `Cc1c(-c2nnnn2Cc2ccoc2)nn(-c2ccc(Cl)cc2Cl)c1-c1ccc(Cl)cc1` [Example 595, 5-(5-(4-Chlorophenyl)-1-(2,4-dichlorophenyl)-4-methyl-1H-pyrazol-3-yl)-1-(furan-3-ylmethyl)-1H-tetrazole], 105 nM.
`Clc1ccc(-c2c(Cl)c(-c3nnc(C4CCC4)o3)nn2-c2ccc(Cl)cc2Cl)cc1` [Example 333, 2-(4-chloro-5-(4-chlorophenyl)-1-(2,4-dichlorophenyl)-1H-pyrazol-3-yl)-5-cyclobutyl-1,3,4-oxadiazole]: the IC50 was 150 nM.
To `CCc1c(-c2nnc(C3(C)CC3)s2)nn(-c2ccc(Cl)cc2Cl)c1-c1ccc(Cl)cc1` [Example 484, 2-(5-(4-chlorophenyl)-1-(2,4-dichlorophenyl)-4-ethyl-1H-pyrazol-3-yl)-5-(1-methylcyclopropyl)-1,3,4-thiadiazole] belongs 31.5 nM.
For the compound `COC(=O)NC(C)c1c(-c2nnc(C3(c4ccc(Cl)cc4)CC3)o2)nn(-c2ccc(Cl)cc2Cl)c1-c1ccc(Cl)cc1` (centres unmarked) [Example 231, Methyl 1-(5-(4-chlorophenyl)-3-(5-(1-(4-chlorophenyl)cyclopropyl)-1,3,4-oxadiazol-2-yl)-1-(2,4-dichlorophenyl)-1H-pyrazol-4-yl)ethylcarbamate], the IC50 amounted to 4.06 nM.
Consider `CCc1c(-c2nnc(C3(c4ccc(C)cc4)CC3)o2)nn(-c2ccc(Cl)cc2Cl)c1-c1ccc(Cl)cc1` [Example 151, 2-(5-(4-chlorophenyl)-1-(2,4-dichlorophenyl)-4-ethyl-1H-pyrazol-3-yl)-5-(1-p-tolylcyclopropyl)-1,3,4-oxadiazole], for which the half-inhibitory concentration (IC50) stood at 7.05 nM.
To `Cc1c(-c2nnc(C3CCOCC3)s2)nn(-c2ccc(Cl)cc2Cl)c1-c1ccc(Cl)cc1` [Example 358, 2-(5-(4-Chlorophenyl)-1-(2,4-dichlorophenyl)-4-methyl-1H-pyrazol-3-yl)-5-(tetrahydro-2H-pyran-4-yl)-1,3,4-thiadiazole] belongs 54.3 nM; to `CC(F)c1c(-c2nnc(C(C)(C)C)o2)nn(-c2ccc(Cl)cc2Cl)c1-c1ccc(Cl)cc1` (centres unmarked) [Example 210, 2-tert-butyl-5-(5-(4-chlorophenyl)-1-(2,4-dichlorophenyl)-4-(1-fluoroethyl)-1H-pyrazol-3-yl)-1,3,4-oxadiazole], 14.1 nM; to `Cc1c(-c2nnc(C3(C#N)CC3)o2)nn(-c2ccc(Cl)cc2Cl)c1-c1ccc(Cl)cc1` [Example 267, 1-(5-(5-(4-chlorophenyl)-1-(2,4-dichlorophenyl)-4-methyl-1H-pyrazol-3-yl)-1,3,4-oxadiazol-2-yl)cyclopropanecarbonitrile], 95.3 nM.
Under `CCc1c(-c2nnc(C3(c4ccc(Cl)cc4Cl)CC3)s2)nn(-c2ccc(Cl)cc2Cl)c1-c1ccc(Cl)cc1` [Example 482, 2-(5-(4-chlorophenyl)-1-(2,4-dichlorophenyl)-4-ethyl-1H-pyrazol-3-yl)-5-(1-(2,4-dichlorophenyl)cyclopropyl)-1,3,4-thiadiazole] stands 3.94 nM; under `Cc1c(-c2nnc(C3(c4ccc(Cl)cc4)CCC3)o2)nn(-c2ccccc2Br)c1-c1ccc(Cl)cc1` [Example 159, 2-(1-(2-bromophenyl)-5-(4-chlorophenyl)-4-methyl-1H-pyrazol-3-yl)-5-(1-(4-chlorophenyl)cyclobutyl)-1,3,4-oxadiazole], 7.51 nM.
Regarding `Cc1c(-c2nnc(C(C)C)s2)nn(-c2ccc(Cl)cc2Cl)c1-c1ccc(Cl)cc1` [Example 353, 2-(5-(4-chlorophenyl)-1-(2,4-dichlorophenyl)-4-methyl-1H-pyrazol-3-yl)-5-isopropyl-1,3,4-thiadiazole], the IC50 was 21.5 nM.
Under `Cc1c(-c2nnnn2C2CC2)nn(-c2ccc(Cl)cc2Cl)c1-c1ccc(Cl)cc1` [Example 599, 5-(5-(4-Chlorophenyl)-1-(2,4-dichlorophenyl)-4-methyl-1H-pyrazol-3-yl)-1-cyclopropyl-1H-tetrazole] stands 181 nM; under `CCC1(c2nnc(-c3nn(-c4ccc(Cl)cc4Cl)c(-c4ccc(Cl)cc4)c3C)s2)CC1` [Example 488, 2-(5-(4-chlorophenyl)-1-(2,4-dichlorophenyl)-4-methyl-1H-pyrazol-3-yl)-5-(1-ethylcyclopropyl)-1,3,4-thiadiazole], 106 nM.
Regarding `Cc1c(-c2nnc(C3(c4cccc(Cl)c4)CC3)o2)nn(-c2ccc(Cl)cc2Cl)c1-c1ccc(Cl)cc1` [Example 257, 2-(5-(4-chlorophenyl)-1-(2,4-dichlorophenyl)-4-methyl-1H-pyrazol-3-yl)-5-(1-(3-chlorophenyl)cyclopropyl)-1,3,4-oxadiazole], the half-inhibitory concentration (IC50) was determined as 11.3 nM.
To `CCn1nnnc1-c1nn(-c2ccc(Cl)cc2Cl)c(-c2ccc(Cl)cc2)c1C` [Example 569, 5-(5-(4-Chlorophenyl)-1-(2,4-dichlorophenyl)-4-methyl-1H-pyrazol-3-yl)-1-ethyl-1H-tetrazole] belongs 202 nM; to `CCc1c(-c2nnc(C3(c4cccc(Cl)c4)CC3)o2)nn(-c2ccc(Cl)cc2Cl)c1-c1ccc(Cl)cc1` [Example 258, 2-(5-(4-chlorophenyl)-1-(2,4-dichlorophenyl)-4-ethyl-1H-pyrazol-3-yl)-5-(1-(3-chlorophenyl)cyclopropyl)-1,3,4-oxadiazole], 8.72 nM.
Under `FCc1c(-c2nnc(C3(c4ccc(Cl)cc4)CC3)o2)nn(-c2ccc(Cl)cc2Cl)c1-c1ccc(Cl)cc1` [Example 223, 2-(5-(4-chlorophenyl)-1-(2,4-dichlorophenyl)-4-(fluoromethyl)-1H-pyrazol-3-yl)-5-(1-(4-chlorophenyl)cyclopropyl)-1,3,4-oxadiazole] stands 7.89 nM; under `CC(C)(C)c1nnc(-c2nn(-c3ccc(Cl)cc3Cl)c(-c3ccc(Cl)cc3)c2CC#N)o1` [Example 310, 2-(3-(5-tert-butyl-1,3,4-oxadiazol-2-yl)-5-(4-chlorophenyl)-1-(2,4-dichlorophenyl)-1H-pyrazol-4-yl)acetonitrile], 6.12 nM; under `CCc1c(-c2nnc(C3(c4ccc(Cl)cc4)CCC3)o2)nn(-c2ccc(Cl)cc2Cl)c1-c1ccc(Cl)cc1` [Example 154, 2-(5-(4-chlorophenyl)-1-(2,4-dichlorophenyl)-4-ethyl-1H-pyrazol-3-yl)-5-(1-(4-chlorophenyl)cyclobutyl)-1,3,4-oxadiazole], 7.42 nM.
To `Cc1c(-c2nnc(C3(Cc4ccc(Cl)cc4)CC3)s2)nn(-c2ccc(Cl)cc2Cl)c1-c1ccc(Cl)cc1` [Example 471, 2-(1-(4-chlorobenzyl)cyclopropyl)-5-(5-(4-chlorophenyl)-1-(2,4-dichlorophenyl)-4-methyl-1H-pyrazol-3-yl)-1,3,4-thiadiazole] belongs 27.2 nM; to `Cc1c(-c2nnc(C3(C(F)(F)F)CC3)s2)nn(-c2ccc(Cl)cc2Cl)c1-c1ccc(Cl)cc1` [Example 462, 2-(5-(4-chlorophenyl)-1-(2,4-dichlorophenyl)-4-methyl-1H-pyrazol-3-yl)-5-(1-(trifluoromethyl)cyclopropyl)-1,3,4-thiadiazole], 36.5 nM.
With `Cc1c(-c2nnc(C(C)CC3CCC3)o2)nn(-c2ccc(Cl)cc2Cl)c1-c1ccc(Cl)cc1` (centres unmarked) [Example 54, 2-(5-(4-chlorophenyl)-1-(2,4-dichlorophenyl)-4-methyl-1H-pyrazol-3-yl)-5-(1-cyclobutylpropan-2-yl)-1,3,4-oxadiazole], the IC50 turned out to be 11.2 nM.
To `Clc1ccc(-c2c(Cn3cncn3)c(-c3nnc(C4(c5ccc(Cl)cc5)CC4)s3)nn2-c2ccc(Cl)cc2Cl)cc1` [Example 506, 2-(4-((1H-1,2,4-triazol-1-yl)methyl)-5-(4-chlorophenyl)-1-(2,4-dichlorophenyl)-1H-pyrazol-3-yl)-5-(1-(4-chlorophenyl)cyclopropyl)-1,3,4-thiadiazole] belongs 2.49 nM.
Under `CC(C)(C)c1nnc(-c2nn(-c3ccc(Cl)cc3Cl)c(-c3ccc(Cl)cc3)c2Br)s1` [Example 541, 2-(4-bromo-5-(4-chlorophenyl)-1-(2,4-dichlorophenyl)-1H-pyrazol-3-yl)-5-tert-butyl-1,3,4-thiadiazole] stands 23.1 nM.
